Experimental data reported in publication PMC8589421, “Impact of Type II LRRK2 inhibitors on signaling and mitophagy” (Biochemical Journal, 2021).

Tests used:
[1] = tested on: mouse embryonic fibroblast cells (MEFs); assay: Cell morphology and attachment of MEFs; format: cell-based
LRRK2 at Ser935 = assay: LRRK2 Ser935 phospho-immunoblot in wild-type MEFs; format: cell-based, mouse
Procedure: Wild-type and homozygous LRRK2 [R1441C] […] All cells were grown at 37°C, 5% (by vol) CO2 in a humidified atmosphere and regularly tested for mycoplasma contamination.
(§1) Inhibitors were dissolved in dimethyl sulfoxide (DMSO) (Sigma, #D2650). The inhibitors were diluted 1000× into cell medium. The equivalent volume of DMSO was added to the minus inhibitor controls. Experiments were performed in six-well plates, 10 cm dishes or 15 cm dishes depending on the amount of cell extract required.
(§2) Lysates were incubated on ice for 30 min and clarified by centrifugation at 20 800×g at 4°C for 20 min. Supernatants were quantified by Bradford assay (Bio-Rad Protein Assay Dye Reagent Concentrate #5000006) and samples prepared in 1× lithium dodecyl sulfate sample buffer final concentration (NuPage LDS Sample buffer 4× Invitrogen, #NP0008). When not deployed immediately, lysates were snap-frozen in liquid nitrogen and stored at −80°C until use.
Cell extracts were mixed with a quarter of a volume of NuPage LDS Sample buffer 4× Invitrogen and heated at 95°C for 5 min. […] At the end of electrophoresis, proteins were electrophoretically transferred onto the nitrocellulose membrane (GE Healthcare, Amersham Protran Supported 0.45 µm NC) at 100 V for 90 min on ice in the transfer buffer (48 mM Tris–HCl and 39 mM glycine supplemented with 20% methanol). Transferred membrane was blocked with 5% (w/v) skim milk powder dissolved in TBS-T [20 mM Tris–HCl, pH 7.5, 150 mM NaCl and 0.1% (v/v) Tween 20] at room temperature for 1 h. The membrane was typically cropped into three pieces, namely the ‘top piece’ (from the top of the membrane to 75 kDa), the ‘middle piece’ (between 75 and 30 kDa) and the ‘bottom piece’ (from 30 kDa to the bottom of the membrane). All primary antibodies were used at 1 μg/ml final concentration and incubated in TBS-T containing 5% (by mass) bovine serum albumin with exception of α-tubulin and GAPDH antibodies that were diluted 1 : 5000 and 1 : 2000, respectively. The top piece was incubated with the indicated rabbit anti-LRRK2 phosphorylation site antibody multiplexed with mouse anti-LRRK2 C-terminus total antibody. The middle piece was incubated with mouse anti-GAPDH or anti-α-tubulin antibody. The bottom pieces were incubated with indicated total and phospho-Rab antibodies. Membranes were incubated in primary antibody overnight at 4°C. Prior to secondary antibody incubation, membranes were washed three times with TBS-T for 10 min each. […] Membranes were washed with TBS-T for three times with a 10 min incubation for each wash. Protein bands were acquired via near infrared fluorescent detection using the Odyssey CLx imaging system and quantified using the Image Studio software.

[2] = tested on: LRRK2 Ser935 phosphorylation, LRRK2[R1441C]; assay: LRRK2 Ser935 phospho-immunoblot in LRRK2[R1441C] knock-in MEFs; format: cell-based, mouse
Procedure: Wild-type and homozygous LRRK2 [R1441C] (Jax, stock number: 009346), LRRK2[G2019S] Taconic, (model 13940) and LRRK2 [A2016T] (Jax, stock number: 021828)[7] knock-in MEF cells were isolated from littermate-matched mouse embryos on a C57BL/6J background at day E12.5 as described previously. MEFs were grown in Dulbecco's modified Eagle medium (DMEM GIBCO, #11960-085) containing 10% (by vol) fetal bovine serum (FBS), 2 mM L-glutamine, 100 U/ml penicillin, and […] streptomycin supplemented with non-essential amino acids and 1 mM sodium pyruvate. Human embryonic kidney 293 (HEK293) (#ATCC CRL-1573) and HeLa (#ATCC CCL-2) cells were purchased from American Tissue Culture Collection (ATCC) and cultured in DMEM containing 10% (by vol) FBS, 2 mM L-glutamine, 100 U/ml penicillin, and […] streptomycin. All cells were grown at 37°C, 5% (by vol) CO2 in a humidified atmosphere and regularly tested for mycoplasma contamination.
as §1
as §2, with “Cells were lysed in an ice-cold lysis buffer containing 50 mM Tris–HCl, pH 7.4, 1% (by vol) Triton X-100, 10% (by vol) glycerol, 150 mM NaCl, 1 mM sodium orthovanadate, 50 mM NaF, 10 mM 2-glycerophosphate, 5 mM sodium pyrophosphate, 1 µg/ml microcystin-LR, and cOmplete EDTA-free protease inhibitor cocktail (Roche, #11836170001). Lysates” for “Lysates”
Cell extracts were mixed with a quarter of a volume of NuPage LDS Sample buffer 4× Invitrogen and heated at 95°C for 5 min. […] At the end of electrophoresis, proteins were electrophoretically transferred onto the nitrocellulose membrane (GE Healthcare, Amersham Protran Supported 0.45 µm NC) at 100 V for 90 min on ice in the transfer buffer (48 mM Tris–HCl and 39 mM glycine supplemented with 20% methanol). Transferred membrane was blocked with 5% (w/v) skim milk powder dissolved in TBS-T [20 mM Tris–HCl, pH 7.5, 150 mM NaCl and 0.1% (v/v) Tween 20] at room temperature for 1 h. […]

Cc1ccc(C(=O)Nc2ccc(CN3CCN(C)CC3)c(C(F)(F)F)c2)cc1C#Cc1cnc2[nH]ncc2c1 [GZD-824]
concentration that impacted cell morphology and attachment [1]: ≥ 10 μM | effect on LRRK2 Ser935 phosphorylation (LRRK2 at Ser935; MEFs, 2 h dose response): did not induce dephosphorylation | Ser935 phosphorylation over 24 h time course (LRRK2 at Ser935; wild-type MEFs, 1 μM, 24 h): unaffected | effect on LRRK2 Ser935 phosphorylation (LRRK2 at Ser935; wild-type MEFs, 10 μM, 2 h, Supplemental Figure S2A): did not reduce LRRK2 phosphorylation at Ser935 significantly | time at which Ser935 phosphorylation plateaued ([2]; LRRK2[R1441C] cells, 1 μM): 160 min | time by which Ser935 phosphorylation increased ([2]; LRRK2[R1441C] cells, 1 μM): ≤ 40 min | effect on Ser935 phosphorylation in LRRK2[R1441C] knock-in cells ([2]; dose and time dependent): rescue Ser935 phosphorylation
